# Laboratory results taken from US9603836B2, “Pyrrolidine-2, 5-dione derivatives, pharmaceutical compositions and methods for use as IDO1 inhibitors” (ITEOS THERAPEUTICS, priority 2014, dated 2017).
# Experiments:
# [1] = test system: PancO2 tumors; test: In vivo efficacy in PancO2 pancreatic cancer syngeneic model; parameters: species or system C57/B16 mice; details: PancO2, 100 mg/kg BID oral
# Method: In vivo efficacy studies of the Compounds of the present invention were performed on PancO2 syngeneic tumor model of C57/B16 mice implanted subcutaneously. Five millions PancO2 pancreas cancer cells were implanted subcutaneously to 7 weeks old C57/B16 mice (day 0). Animals were randomized based on tumor size when tumor average reached 60 mm^3 (between day 10 and 12) into different treatment cohorts. The Compound was administered orally twice per day (approximately at 9 am and 5 pm) starting the day of randomization. The Compound was suspended into Methocel vehicle and sonicated before oral administration to animals using gavage needles. Treatment was administered daily until the end of the study. All experimental animals were monitored for body weight changes weekly. Tumor volume was measured weekly using a caliper device and calculated with the following formula: Tumor volume=0.5×(length×width^2). Studies were terminated before tumor volumes reached 2000 mm. TGI (% tumor growth inhibition) was determined as
# Treatment was administered daily until the end of the study. Tumor volume was measured weekly using a caliper device and calculated with the following formula: Tumor volume=0.5×(length×width^2). Mice were considered as dead when tumor size reached 400 mm^3. […] SEM refers to standard error of measurement.
# [2] = test system: Kynurenine; test: In-vivo inhibition of blood kynurenine levels in healthy mice; parameters: species or system mouse; details: two hours
# Method: The compounds of the present invention reduce the amount of Kynurenine in healthy mouse blood.
# Briefly, mice were treated with either a suspension of one of the compounds of the present invention in 0.5% hydroxypropyl methylcellulose (HPMC) K4M/0.25% Tween 20 at different doses, or with a vehicle control (0.5% HPMC K4M/0.25% Tween 20), by the oral route by gavage (dosing volume 5 mL/kg, 10 mice per group). After two hours, blood was harvested, plasma was prepared and the amount of Kynurenine present was determined by LC-MS-MS (HPLC column Unison UK-Phenyl, 75×4.6, 3 μm, flow rate 0.8 mL/min, 4 minutes gradient from water+0.2% acetic acid to methanol+0.1% formic acid, retention time 2.7 min; API4000™ MS-MS system from AB Sciex, ESI+ mode, parent ion 209.2, daughter ion 94.1).
# [3] = target: T1, hIDO1 (Homo sapiens (Human), UniProt P14902); test: Assay for IDO1 enzymatic activity determination; assay type: biochemical; details: human recombinant IDO1 enzyme, L-Trp 100 μM
# Method: To measure enzymatic activity of human IDO1, the reaction mixture contained (final concentrations) potassium phosphate buffer (50 mM, pH 6.5), ascorbic acid (10 mM), methylene blue (5 μM) and human recombinant IDO1 enzyme (prepared as described in Rohrig et al. J Med Chem, 2012, 55, 5270-5290; final concentration 5 μg/mL) without or with the compounds of the present invention at the indicated concentrations (total volume 112.5 μL). The reaction was initiated by the addition of 37.5 μL of L-Trp (final concentration 100 μM) at room temperature. The reaction was conducted at room temperature during 15 minutes and stopped by the addition of 30 μL of 30% (w/v) trichloroacetic acid.
# To convert N-formylkynurenine into kynurenine, the reaction mixture was incubated at 65° C. for 30 min. Then 120 μL of 2.5% (w/v) 4-(dimethylamino)-benzaldehyde in acetic acid were added and the mixture incubated for 5 min at room temperature. Kynurenine concentrations were determined by measuring the absorbance at 480 nm. A standard curve was made with pure kynurenine. The IDO1 activity was measured as described above using ten serial concentrations of the compounds of the present invention. Data were fitted using the Prism software (GraphPad Software, Inc.).
# [4] = target: T1, hIDO1; test: Cellular assay for IDO activity determination: hIDO1 P815 cells; assay type: cell-based; details: P815 cells overexpressing hIDO1, 24 hours
# Method: To determine IDO1 activity, the cells were incubated 24 hours at 37° C. at 5% CO2 in IMDM (Invitrogen) supplemented with 2% FBS and 2% penicillin/streptomycin in the presence of the compounds of the present invention, at different concentrations.
# The plates were then centrifuged 5 min at 1000 rpm, and 100 μL of the supernatant were collected in a conical plate, 30 uL of TCA 30% were added and a further centrifugated at 3000×g for 10 minutes. 100 μL of the supernatant were collected in a flat bottomed plate and 100 μL of 2% (w/v) 4-(dimethylamino)-benzaldehyde in acetic acid and incubated for 5 min at room temperature. […] A standard curve was made with pure kynurenine.
# [5] = target: T1, hIDO1; test: Cellular assay for IDO1 activity determination: HeLa cells; assay type: cell-based; details: HeLa cells stimulated with IFNγ
# Method: The assay was performed in 96-well flat bottom plates seeded with the human cervical cancer HeLa cell line with stimulation with IFN.
# To adhere HeLa cells (concentration of 5×10^3 cells/well) were incubated overnight at 37° C. at 5% CO2 in EMEM (Lonza) supplemented with 10% FBS, 2% penicillin/streptomycin and 2 mM Ultraglutamin, in a final volume of 200 μL.
# To stimulate the expression of IDO1, cells were then incubated two days at 37° C. at 5% CO2 in EMEM (Lonza) supplemented with 2% FBS, 2% penicillin/streptomycin and 2 mM Ultraglutamine and 100 ng/mL IFNγ (R&D).
# To determine IDO1 activity, medium was removed then the cells were incubated one day at 37° C. at 5% CO2 in EMEM (Lonza) supplemented with 2% FBS and 2% penicillin/streptomycin in the presence of the compounds of the present invention, at different concentrations. Then 100 μL of the supernatant were collected in a conical plate, 30 uL of TCA 30% were added and a centrifugation was made at 3000×g for 10 minutes. 100 μL of the supernatant were collected in a flat bottom plate and 100 μL of 2% (w/v) 4-(dimethylamino)-benzaldehyde in acetic acid and incubated for 5 min at room temperature. […] A standard curve was made with pure kynurenine.
# T1 sequence (P14902 whole entry): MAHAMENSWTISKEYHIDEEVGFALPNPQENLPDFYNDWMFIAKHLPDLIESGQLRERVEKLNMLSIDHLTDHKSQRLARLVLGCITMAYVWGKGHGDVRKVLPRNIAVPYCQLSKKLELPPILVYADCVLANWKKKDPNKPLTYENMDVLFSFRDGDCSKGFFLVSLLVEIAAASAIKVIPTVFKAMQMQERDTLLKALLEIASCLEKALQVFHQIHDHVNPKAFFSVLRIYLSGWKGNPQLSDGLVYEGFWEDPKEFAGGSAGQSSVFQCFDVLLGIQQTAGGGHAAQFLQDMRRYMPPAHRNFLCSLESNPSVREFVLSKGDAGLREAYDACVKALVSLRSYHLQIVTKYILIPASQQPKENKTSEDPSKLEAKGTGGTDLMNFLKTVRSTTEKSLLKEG
Compound,IC50 [3] [nM],other results
"O=C1C[C@H](c2c[nH]c3ccc(F)cc23)C(=O)N1 [Compound 2, (−)-(R)-3-(5-fluoro-1H-indol-3-yl)pyrrolidine-2,5-dione]",,Mean tumor volume +/− SEM on day 55 [1]: 586.6 +/− 48.4 mm^3; TGI +/− SEM (Tumor growth inhibition) ([1]; day 55): 16.8% +/− 8.2; Kynurenine concentration in plasma (average ± standard error of the mean) ([2]; 10 mg/kg oral): 122 ± 3.5 ng/mL; inhibition of circulating Kynurenine ([2]; 10 mg/kg oral): 39%; Kynurenine concentration in plasma (average ± standard error of the mean) ([2]; 30 mg/kg oral): 91.0 ± 4.4 ng/mL; inhibition of circulating Kynurenine ([2]; 30 mg/kg oral): 55%; Kynurenine concentration in plasma (average ± standard error of the mean) ([2]; 100 mg/kg oral): 64.0 ± 3.8 ng/mL; inhibition of circulating Kynurenine ([2]; 100 mg/kg oral): 68%
"O=C1CC(c2c[nH]c3ccccc23)C(=O)N1 (stereo not drawn) [Compound 3, 3-(1H-indol-3-yl)pyrrolidine-2,5-dione]",3000,IC50 [4]: 920 nM
"O=C1C[C@H](c2c[nH]c3ccccc23)C(=O)N1 [Compound 4, (−)-(R)-3-(1H-indol-3-yl)pyrrolidine-2,5-dione]",1800,IC50 [4]: 240 nM
"O=C1C[C@@H](c2c[nH]c3ccccc23)C(=O)N1 [Compound 4a, (+)-(S)-3-(1H-indol-3-yl)pyrrolidine-2,5-dione]",> 50000,IC50 [4]: 3300 nM
"O=C1CC(c2c[nH]c3ccc(Cl)cc23)C(=O)N1 (stereo not drawn) [Compound 5, 3-(5-chloro-1H-indol-3-yl)pyrrolidine-2,5-dione]",2100,IC50 [4]: 590 nM
"O=C1C[C@H](c2c[nH]c3ccc(Cl)cc23)C(=O)N1 [Compound 6, (−)-(R)-3-(5-chloro-1H-indol-3-yl)pyrrolidine-2,5-dione]",2200,IC50 [5]: 3400 nM
"O=C1C[C@@H](c2c[nH]c3ccc(Cl)cc23)C(=O)N1 [Compound 6a, (+)-(S)-3-(5-chloro-1H-indol-3-yl)pyrrolidine-2,5-dione]",> 50000,
"O=C1CC(c2c[nH]c3cc(Cl)c(F)cc23)C(=O)N1 (stereo not drawn) [Compound 7, 3-(6-chloro-5-fluoro-1H-indol-3-yl)pyrrolidine-2,5-dione]",490,
"O=C1C[C@H](c2c[nH]c3cc(Cl)c(F)cc23)C(=O)N1 [Compound 8, (R)-3-(6-chloro-5-fluoro-1H-indol-3-yl)pyrrolidine-2,5-dione]",,IC50 [5]: 3600 nM
"O=C1CC(c2c[nH]c3cc(Br)c(F)cc23)C(=O)N1 (stereo not drawn) [Compound 9, 3-(6-bromo-5-fluoro-1H-indol-3-yl)pyrrolidine-2,5-dione]",290,IC50 [5]: 7000 nM
"O=C1C[C@H](c2c[nH]c3cc(Br)c(F)cc23)C(=O)N1 [Compound 10, (R)-3-(6-bromo-5-fluoro-1H-indol-3-yl)pyrrolidine-2,5-dione]",620,
"O=C1C[C@@H](c2c[nH]c3cc(Br)c(F)cc23)C(=O)N1 [Compound 10a, (S)-3-(6-bromo-5-fluoro-1H-indol-3-yl)pyrrolidine-2,5-dione]",8000,
"O=C1CC(c2c[nH]c3ccc(Br)cc23)C(=O)N1 (stereo not drawn) [Compound 11, 3-(5-bromo-1H-indol-3-yl)pyrrolidine-2,5-dione]",370,IC50 [5]: 5900 nM
"Cc1ccc2[nH]cc(C3CC(=O)NC3=O)c2c1 (stereo not drawn) [Compound 12, 3-(5-methyl-1H-indol-3-yl)pyrrolidine-2,5-dione]",53000,
"COc1ccc2[nH]cc(C3CC(=O)NC3=O)c2c1 (stereo not drawn) [Compound 13, 3-(5-methoxy-1H-indol-3-yl)pyrrolidine-2,5-dione]",53000,
"N#Cc1ccc2[nH]cc(C3CC(=O)NC3=O)c2c1 (stereo not drawn) [Compound 14, 3-(2,5-dioxopyrrolidin-3-yl)-1H-indole-5-carbonitrile]",12000,
"O=C1CC(c2c[nH]c3cc(F)c(F)cc23)C(=O)N1 (stereo not drawn) [Compound 15, 3-(5,6-difluoro-1H-indol-3-yl)pyrrolidine-2,5-dione]",1800,IC50 [4]: 260 nM
"Cc1cc2[nH]cc(C3CC(=O)NC3=O)c2cc1F (stereo not drawn) [Compound 16, 3-(5-fluoro-6-methyl-1H-indol-3-yl)pyrrolidine-2,5-dione]",46000,

# Now from value to molecule, other results behind:
IC50 [3] [nM],Compound,other results
3400,"O=C1CC(c2c[nH]c3cc(F)ccc23)C(=O)N1 (stereo not drawn) [Compound 17, 3-(6-fluoro-1H-indol-3-yl)pyrrolidine-2,5-dione]",
2100,"O=C1CC(c2c[nH]c3cc(Cl)ccc23)C(=O)N1 (stereo not drawn) [Compound 18, 3-(6-chloro-1H-indol-3-yl)pyrrolidine-2,5-dione]",IC50 [4]: 500 nM
420,"O=C1CC(c2c[nH]c3cc(Br)ccc23)C(=O)N1 (stereo not drawn) [Compound 19, 3-(6-bromo-1H-indol-3-yl)pyrrolidine-2,5-dione]",
54000,"Cc1ccc2c(C3CC(=O)NC3=O)c[nH]c2c1 (stereo not drawn) [Compound 20, 3-(6-methyl-1H-indol-3-yl)pyrrolidine-2,5-dione]",
1700,"N#Cc1ccc2c(C3CC(=O)NC3=O)c[nH]c2c1 (stereo not drawn) [Compound 22, 3-(2,5-dioxopyrrolidin-3-yl)-1H-indole-6-carbonitrile]",
18000,"O=C1CC(c2cccc3ccccc23)C(=O)N1 (stereo not drawn) [Compound 23, 3-(naphthalen-1-yl)pyrrolidine-2,5-dione]",
1700,"O=C1CC(c2cccc3cc(F)ccc23)C(=O)N1 (stereo not drawn) [Compound 24, 3-(6-fluoronaphthalen-1-yl)pyrrolidine-2,5-dione]",
4600,"O=C1CC(c2cccc3ccc(F)cc23)C(=O)N1 (stereo not drawn) [Compound 25, 3-(7-fluoronaphthalen-1-yl)pyrrolidine-2,5-dione]",
